Results reported in patent publication US20220017501A1, “MICROBIOCIDAL THIAZOLE DERIVATIVES” (SYNGENTA PARTICIPATIONS AG, priority 2018, published 2022).

Experiments:
[1] = test system: Glomerella lagenarium (Colletotrichum lagenarium); experiment: Glomerella lagenarium (Colletotrichum lagenarium) / liquid culture (anthracnose); type: cell-based; conditions: Colletotrichum orbiculare, growth inhibition photometrically 3-4 days after application, read-out: control of Glomerella lagenarium
Experimental: Example B3: Glomerella Lagenarium (Colletotrichum Lagenarium)/Liquid Culture (Anthracnose) Conidia of the fungus from cryogenic storage are directly mixed into nutrient broth (PDB potato dextrose broth). After placing a (DMSO) solution of test compound into a microtiter plate (96-well format), the nutrient broth containing the fungal spores is added. The test plates are incubated at 24° C. and the inhibition of growth is measured photometrically 3-4 days after application.

[2] = test system: Blumeria graminis f. sp. tritici (Erysiphe graminis f. sp. tritici); experiment: Blumeria graminis f. sp. tritici / wheat / leaf disc preventative (powdery mildew on wheat); type: in vivo; conditions: foliar, wheat leaf segments, compared to untreated control
Experimental: Example B4: Blumeria Graminis f. sp. Tritici (Erysiphe Graminis f. sp. Tritici)/Wheat/Leaf Disc Preventative (Powdery Mildew on Wheat) Wheat leaf segments cv. Kanzler are placed on agar in a multiwell plate (24-well format) and sprayed with the formulated test compound diluted in water. The leaf disks are inoculated by shaking powdery mildew infected plants above the test plates 1 day after application. The inoculated leaf disks are incubated at 20° C. and 60% rh under a light regime of 24 h darkness followed by 12 h light/12 h darkness in a climate chamber and the activity of a compound is assessed as percent disease control compared to untreated when an appropriate level of disease damage appears on untreated check leaf segments (6-8 days after application). […].23.

[3] = test system: Monographella nivalis (Microdochium nivale); experiment: Monographella nivalis (Microdochium nivale) / liquid culture (foot rot cereals); type: cell-based; conditions: growth inhibition photometrically 4-5 days after application, read-out: control of Monographella nivalis
Experimental: Example B7: Monographella Nivalis (Microdochium Nivale)/Liquid Culture (Foot Rot Cereals) Conidia of the fungus from cryogenic storage are directly mixed into nutrient broth (PDB potato dextrose broth). After placing a (DMSO) solution of test compound into a microtiter plate (96-well format), the nutrient broth containing the fungal spores is added. The test plates are incubated at 24° C. and the inhibition of growth is determined photometrically 4-5 days after application. […] […].23.

[4] = test system: Magnaporthe grisea (Pyricularia oryzae); experiment: whole plant or invertebrate; type: in vivo; conditions: foliar, read-out: control of Magnaporthe grisea
Pyrenophora teres = Pyrenophora teres / barley / leaf disc preventative (net blotch); type: in vivo; conditions: foliar, barley leaf segments, compared to untreated control
Experimental: Example B14: Pyrenophora Teres/Barley/Leaf Disc Preventative (Net Blotch) Barley leaf segments cv. Hasso are placed on agar in a multiwell plate (24-well format) and sprayed with the formulated test compound diluted in water. The leaf […] inoculated with a spore suspension of the fungus 2 days after application. The inoculated leaf segments are incubated at 20° C. and 65% rh under a light regime of 12 h light/12 h darkness in a climate cabinet and the activity of a compound is assessed as disease control compared to untreated when an appropriate level of disease damage appears in untreated check leaf segments (5-7 days after application). […] […].23.

[5] = test system: Mycosphaerella graminicola (Septoria tritici); experiment: Mycosphaerella graminicola (Septoria tritici) / liquid culture (Septoria blotch); type: cell-based; conditions: Zymoseptoria tritici, growth inhibition photometrically 4-5 days after application, read-out: control of Mycosphaerella graminicola
Experimental: Example B16: Mycosphaerella Graminicola (Septoria Tritici)/Liquid Culture (Septoria Blotch) Conidia of the fungus from cryogenic storage are directly mixed into nutrient broth (PDB potato dextrose broth). After placing a (DMSO) solution of test compound into a microtiter plate (96-well format), the nutrient broth containing the fungal spores is added. The test plates are incubated at 24° C. and the inhibition of growth is determined photometrically 4-5 days after application. […] […].23.

[6] = test system: Mycosphaerella arachidis (Cercospora arachidicola); experiment: Mycosphaerella arachidis (Cercospora arachidicola) / liquid culture (early leaf spot); type: cell-based; conditions: growth inhibition photometrically 4-5 days after application, read-out: control of Mycosphaerella arachidis
Experimental: Example B8: Mycosphaerella Arachidis (Cercospora Arachidicola)/Liquid Culture (Early Leaf Spot) Conidia of the fungus from cryogenic storage are directly mixed into nutrient broth (PDB potato dextrose broth). After placing a (DMSO) solution of test compound into a microtiter plate (96-well format), the nutrient broth containing the fungal spores is added. The test plates are incubated at 24° C. and the inhibition of growth is determined photometrically 4-5 days after application. […] […].23.

Cc1sc(N(C#N)c2cc(F)nc(F)c2)nc1C(=O)NCC(C)C [I.i.23, 2-[cyano-(2,6-difluoro-4-pyridyl)amino]-N-isobutyl-5-methyl-thiazole-4-carboxamide]
≥ 80%: inhibition of growth at 20 ppm [1] | pest or weed control at 200 ppm [2] | inhibition of growth at 20 ppm [3] | pest or weed control at 200 ppm [4] | pest or weed control at 200 ppm (Pyrenophora teres) | inhibition of growth at 20 ppm [5]

Cc1sc(N(C#N)c2cc(F)nc(F)c2)nc1C(=O)NCC1(CC2CC2)CC1 [I.f.23, 2-[cyano-(2,6-difluoro-4-pyridyl)amino]-N-[[1-(cyclopropylmethyl)cyclopropyl]methyl]-5-methyl-thiazole-4-carboxamide]
≥ 80%: inhibition of growth at 20 ppm [1] | pest or weed control at 200 ppm [2] | inhibition of growth at 20 ppm [3] | inhibition of growth at 20 ppm [6] | pest or weed control at 200 ppm [4] | inhibition of growth at 20 ppm [5]

Cc1sc(N(C#N)c2cc(F)nc(F)c2)nc1C(=O)NC1CCC12CCC2 (centres unmarked) [I.e.23, 2-[cyano-(2,6-difluoro-4-pyridyl)amino]-5-methyl-N-spiro[3.3]heptan-3-yl-thiazole-4-carboxamide]
≥ 80%: inhibition of growth at 20 ppm [1] | pest or weed control at 200 ppm [2] | inhibition of growth at 20 ppm [3] | inhibition of growth at 20 ppm [6] | pest or weed control at 200 ppm [4] | inhibition of growth at 20 ppm [5]

Cc1sc(N(C#N)c2cc(F)nc(F)c2)nc1C(=O)NC1CCC1 [I.a.23, 2-[cyano-(2,6-difluoro-4-pyridyl)amino]-N-cyclobutyl-5-methyl-thiazole-4-carboxamide]
≥ 80%: pest or weed control at 200 ppm [2] | inhibition of growth at 20 ppm [3] | pest or weed control at 200 ppm [4] | pest or weed control at 200 ppm (Pyrenophora teres) | inhibition of growth at 20 ppm [5]

Cc1sc(N(C#N)c2cc(F)nc(F)c2)nc1C(=O)NC1CCC12CCCC2 (centres unmarked) [I.c.23, 2-[cyano-(2,6-difluoro-4-pyridyl)amino]-5-methyl-N-spiro[3.4]octan-3-yl-thiazole-4-carboxamide]
≥ 80%: inhibition of growth at 20 ppm [1] | pest or weed control at 200 ppm [2] | inhibition of growth at 20 ppm [3] | inhibition of growth at 20 ppm [6] | pest or weed control at 200 ppm [4] | pest or weed control at 200 ppm (Pyrenophora teres) | inhibition of growth at 20 ppm [5]

CC1(C)CCC1NC(=O)c1nc(N(C#N)c2cc(F)nc(F)c2)sc1NC=O (centres unmarked) [I.b.25, 2-[cyano-(2,6-difluoro-4-pyridyl)amino]-N-(2,2-dimethylcyclobutyl)-5-formamido-thiazole-4-carboxamide]
≥ 80%: inhibition of growth at 20 ppm [1] | inhibition of growth at 20 ppm [3] | inhibition of growth at 20 ppm [5]

Cc1sc(N(C#N)c2cc(F)nc(F)c2)nc1C(=O)NC(C)c1ccccc1 (centres unmarked) [I.j.23, 2-[cyano-(2,6-difluoro-4-pyridyl)amino]-5-methyl-N-(1-phenylethyl)thiazole-4-carboxamide]
≥ 80%: inhibition of growth at 20 ppm [1] | pest or weed control at 200 ppm [2] | inhibition of growth at 20 ppm [3] | pest or weed control at 200 ppm [4] | inhibition of growth at 20 ppm [5]

Cc1sc(N(C#N)c2cc(F)nc(F)c2)nc1C(=O)NC1(C)CCCC1 [I.g.23, 2-[cyano-(2,6-difluoro-4-pyridyl)amino]-5-methyl-N-(1-methylcyclopentyl)thiazole-4-carboxamide]
≥ 80%: inhibition of growth at 20 ppm [1] | pest or weed control at 200 ppm [2] | inhibition of growth at 20 ppm [3] | inhibition of growth at 20 ppm [6] | pest or weed control at 200 ppm [4] | pest or weed control at 200 ppm (Pyrenophora teres) | inhibition of growth at 20 ppm [5]

Cc1sc(N(C#N)c2cc(F)nc(F)c2)nc1C(=O)NCc1ccccc1 [I.o.23, N-benzyl-2-[cyano-(2,6-difluoro-4-pyridyl)amino]-5-methyl-thiazole-4-carboxamide]
≥ 80%: inhibition of growth at 20 ppm [1] | pest or weed control at 200 ppm [2] | inhibition of growth at 20 ppm [3] | inhibition of growth at 20 ppm [6] | pest or weed control at 200 ppm [4] | inhibition of growth at 20 ppm [5]

CCCCCNC(=O)c1nc(N(C#N)c2cc(F)nc(F)c2)sc1C [I.l.23, 2-[cyano-(2,6-difluoro-4-pyridyl)amino]-5-methyl-N-pentyl-thiazole-4-carboxamide]
≥ 80%: pest or weed control at 200 ppm [2] | inhibition of growth at 20 ppm [3] | inhibition of growth at 20 ppm [6] | pest or weed control at 200 ppm [4] | inhibition of growth at 20 ppm [5]

Cc1sc(N(C#N)c2cc(F)cc(F)c2)nc1C(=O)NC1(C)CCCC1 [I.g.08, 2-(N-cyano-3,5-difluoro-anilino)-5-methyl-N-(1-methylcyclopentyl)thiazole-4-carboxamide]
≥ 80%: inhibition of growth at 20 ppm [1] | pest or weed control at 200 ppm [2] | inhibition of growth at 20 ppm [3] | inhibition of growth at 20 ppm [6] | pest or weed control at 200 ppm [4]

CCCCNC(=O)c1nc(N(C#N)c2cc(F)nc(F)c2)sc1C [I.p.23, N-butyl-2-[cyano-(2,6-difluoro-4-pyridyl)amino]-5-methyl-thiazole-4-carboxamide]
≥ 80%: inhibition of growth at 20 ppm [1] | pest or weed control at 200 ppm [2] | inhibition of growth at 20 ppm [3] | inhibition of growth at 20 ppm [6] | pest or weed control at 200 ppm [4] | pest or weed control at 200 ppm (Pyrenophora teres) | inhibition of growth at 20 ppm [5]

CCCCCCNC(=O)c1nc(N(C#N)c2cc(F)nc(F)c2)sc1C [I.h.23, 2-[cyano-(2,6-difluoro-4-pyridyl)amino]-N-hexyl-5-methyl-thiazole-4-carboxamide]
≥ 80%: inhibition of growth at 20 ppm [1] | pest or weed control at 200 ppm [2] | inhibition of growth at 20 ppm [3] | inhibition of growth at 20 ppm [6] | pest or weed control at 200 ppm [4] | inhibition of growth at 20 ppm [5]

Cc1sc(N(C#N)c2cc(F)cc(F)c2)nc1C(=O)NC1CCC1(C)C (centres unmarked) [I.b.08, 2-(N-cyano-3,5-difluoro-anilino)-N-(2,2-dimethylcyclobutyl)-5-methyl-thiazole-4-carboxamide]
≥ 80%: inhibition of growth at 20 ppm [1] | pest or weed control at 200 ppm [2] | inhibition of growth at 20 ppm [3] | inhibition of growth at 20 ppm [6] | pest or weed control at 200 ppm [4] | inhibition of growth at 20 ppm [5]
